Results from publication PMC12281424, “A Rac-specific competitive inhibitor of guanine nucleotide binding reduces metastasis in triple-negative breast cancer” (Cell Reports Medicine, 2025).

Legend:
IGF-1R(h) = IGF-1R(h) (Homo sapiens, UniProt P08069); assay: Kinase Profiler; format: biochemical
Experimental: (§1) Blood cell counts, kinase profiler, safety screen, bacterial cytotoxicity, Ames, micronucleus assays were performed by the company Eurofins (France). The kinase profiler was performed by the company Eurofins (Discovery, Panlab and Cerep).

ROCK-I(h) = ROCK-I(h) (Homo sapiens, UniProt Q13464); assay: Kinase Profiler; format: biochemical
Experimental: as §1

PTK5(h) = PTK5(h) (Homo sapiens, UniProt P42685); assay: Kinase Profiler; format: biochemical
Experimental: (§2) The kinase profiler was performed by the company Eurofins (Discovery, Panlab and Cerep).

Nicotinic Acetylcholine = assay: Safety screen; format: binding, human
Experimental: (§3) Blood cell counts, kinase profiler, safety screen, bacterial cytotoxicity, Ames, micronucleus assays were performed by the company Eurofins (France).

Snk(h) = Snk(h) (Homo sapiens, UniProt Q9NYY3); assay: Kinase Profiler; format: biochemical
Experimental: as §2

CaMKIV(h) = CaMKIV(h) (Homo sapiens, UniProt Q16566); assay: Kinase Profiler; format: biochemical
Experimental: as §2

CDC42 = CDC42 (Homo sapiens, UniProt P60953); assay: GEF-stimulated nucleotide exchange; format: biochemical; design: Full-length RAC2, RHOG, RHOA and CDC42 were purified as previously described; made in house; TIAM DH-PH in E. coli Rosetta (DE3) pLysS; details: 10^-5 M
From the text: Figure 4 A41 selectively impairs RAC protein activation (A) Representative surface plasmon resonance (SPR) sensograms of binding of immobilized RHOA or CDC42 with indicated increasing concentrations of A41 (N > 3). (B) Effect of A41 on GEF-stimulated RAC2, RHOG, RHOA, and CDC42 nucleotide exchange. […] Kobs is expressed as mean ± SEM. ∗p < 0.001 vs. control. (C) Effect of A41 on RAC1 G30S activation. […] The GEF TRIO was used to induce nucleotide exchange (N = 3). Data are expressed as mean ± SEM. (D) Immunoblot analysis and associated quantification of RAC-GTP level and total RAC expression in NIH-3T3 fibroblasts expressing RAC wild-type (RAC1 WT) or RAC1 oncomutants (RAC1 P29S and RAC1b) in the absence (Ctrl) and presence of A41 (10 μM). RAC activation was measured as the ratio of RAC-GTP to total RAC and expressed relative to Ctrl condition. Data are presented as mean ± SEM. ∗∗∗p < 0.001 vs. controls.
Full-length RAC1 carrying a 6xHis tag in C-terminus was purified as previously described.[64] […] Specific exchange activity toward RHOA determined by fluorescence kinetics is 0.04 s^−1M^−1.
Nucleotide exchange kinetics were measured by recording the increase in fluorescence following the association of mant-GTP on GDP-bound RHO protein or the decay in fluorescence following the dissociation of mant-GDP pre-loaded onto the RHO protein (λEx = 360 nm, λEm = 440 nm) as previously described.[39] […]

PDHK4(h) = PDHK4(h) (Homo sapiens, UniProt Q16654); assay: Kinase Profiler; format: biochemical
Experimental: as §1

WNK2(h) = WNK2(h) (Homo sapiens, UniProt Q9Y3S1); assay: Kinase Profiler; format: biochemical
Chain of WNK2(h) (Q9Y3S1 whole entry): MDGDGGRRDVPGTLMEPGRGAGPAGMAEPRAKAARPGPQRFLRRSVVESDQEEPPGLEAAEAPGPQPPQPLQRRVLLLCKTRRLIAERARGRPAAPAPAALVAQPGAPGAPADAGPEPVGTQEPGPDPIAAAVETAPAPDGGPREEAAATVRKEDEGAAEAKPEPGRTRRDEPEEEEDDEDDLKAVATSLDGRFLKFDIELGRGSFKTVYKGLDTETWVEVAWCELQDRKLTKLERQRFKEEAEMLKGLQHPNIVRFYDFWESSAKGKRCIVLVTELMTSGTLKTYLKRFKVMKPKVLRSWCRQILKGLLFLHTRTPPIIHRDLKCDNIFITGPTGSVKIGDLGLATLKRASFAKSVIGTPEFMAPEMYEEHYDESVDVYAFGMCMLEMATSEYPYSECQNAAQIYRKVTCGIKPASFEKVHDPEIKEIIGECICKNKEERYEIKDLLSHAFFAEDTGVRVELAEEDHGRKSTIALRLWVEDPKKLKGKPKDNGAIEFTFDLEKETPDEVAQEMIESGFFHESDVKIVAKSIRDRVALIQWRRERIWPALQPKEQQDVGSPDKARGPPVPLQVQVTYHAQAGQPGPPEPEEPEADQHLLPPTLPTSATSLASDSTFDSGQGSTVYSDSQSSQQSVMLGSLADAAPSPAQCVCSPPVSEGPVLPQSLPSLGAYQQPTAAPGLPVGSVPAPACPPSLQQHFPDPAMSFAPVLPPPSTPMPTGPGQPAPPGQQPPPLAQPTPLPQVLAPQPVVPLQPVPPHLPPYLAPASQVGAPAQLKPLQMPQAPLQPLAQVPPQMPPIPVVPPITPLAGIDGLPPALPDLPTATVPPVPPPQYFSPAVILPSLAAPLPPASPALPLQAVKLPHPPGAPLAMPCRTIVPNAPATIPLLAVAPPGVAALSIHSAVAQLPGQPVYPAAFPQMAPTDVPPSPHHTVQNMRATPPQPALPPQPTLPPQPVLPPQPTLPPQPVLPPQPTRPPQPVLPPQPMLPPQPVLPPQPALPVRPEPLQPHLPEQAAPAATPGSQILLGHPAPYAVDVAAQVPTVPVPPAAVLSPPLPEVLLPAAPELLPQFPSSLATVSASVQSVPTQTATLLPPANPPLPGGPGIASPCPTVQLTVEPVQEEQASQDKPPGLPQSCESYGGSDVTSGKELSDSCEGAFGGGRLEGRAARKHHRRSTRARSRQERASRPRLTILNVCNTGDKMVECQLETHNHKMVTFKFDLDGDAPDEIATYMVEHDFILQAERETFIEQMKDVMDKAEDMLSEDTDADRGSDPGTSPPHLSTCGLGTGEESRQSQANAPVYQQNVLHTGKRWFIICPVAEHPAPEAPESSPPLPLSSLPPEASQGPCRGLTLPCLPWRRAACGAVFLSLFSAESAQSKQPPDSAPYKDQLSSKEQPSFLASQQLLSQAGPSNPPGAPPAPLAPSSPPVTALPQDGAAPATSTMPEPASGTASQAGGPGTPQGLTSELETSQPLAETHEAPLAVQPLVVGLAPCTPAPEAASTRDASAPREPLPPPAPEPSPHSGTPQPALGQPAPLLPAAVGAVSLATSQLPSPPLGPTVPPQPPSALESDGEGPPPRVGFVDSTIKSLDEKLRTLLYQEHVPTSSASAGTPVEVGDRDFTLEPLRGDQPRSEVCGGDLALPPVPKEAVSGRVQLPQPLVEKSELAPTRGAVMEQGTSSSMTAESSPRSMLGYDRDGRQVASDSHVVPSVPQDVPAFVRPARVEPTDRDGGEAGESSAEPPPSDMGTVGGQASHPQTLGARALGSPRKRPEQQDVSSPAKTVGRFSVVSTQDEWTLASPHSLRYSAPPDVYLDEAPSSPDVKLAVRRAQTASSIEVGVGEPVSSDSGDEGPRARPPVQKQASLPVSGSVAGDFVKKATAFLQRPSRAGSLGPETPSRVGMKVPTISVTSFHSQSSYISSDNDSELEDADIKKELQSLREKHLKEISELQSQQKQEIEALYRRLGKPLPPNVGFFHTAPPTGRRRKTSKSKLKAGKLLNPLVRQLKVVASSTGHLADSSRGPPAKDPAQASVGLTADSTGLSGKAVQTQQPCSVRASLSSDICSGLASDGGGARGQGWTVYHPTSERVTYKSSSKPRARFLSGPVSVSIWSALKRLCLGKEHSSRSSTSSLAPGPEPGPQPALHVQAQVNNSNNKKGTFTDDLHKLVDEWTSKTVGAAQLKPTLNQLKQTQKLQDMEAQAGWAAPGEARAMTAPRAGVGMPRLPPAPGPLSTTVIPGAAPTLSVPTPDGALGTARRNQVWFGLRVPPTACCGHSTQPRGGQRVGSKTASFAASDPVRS
Experimental: as §2

Fyn(h) = Fyn(h) (Homo sapiens, UniProt P06241); assay: Kinase Profiler; format: biochemical
Experimental: as §2

CLK1(h) = CLK1(h) (Homo sapiens, UniProt P49759); assay: Kinase Profiler; format: biochemical
Experimental: as §2

BRK(h) = BRK(h) (Homo sapiens, UniProt Q13882); assay: Kinase Profiler; format: biochemical
Experimental: as §1

[1] = test system: Calcium Channel L-Type, Phenylalkylamine; assay: Safety screen; format: binding, rat
GABAB1A = GABAB1A (Homo sapiens, UniProt Q9UBS5); assay: Safety screen; format: binding
Experimental: as §3

IGF-1R(h), activated = IGF-1R(h), activated (Homo sapiens, UniProt P08069); assay: Kinase Profiler; format: biochemical
Chain of IGF-1R(h), activated (P08069 31-1367): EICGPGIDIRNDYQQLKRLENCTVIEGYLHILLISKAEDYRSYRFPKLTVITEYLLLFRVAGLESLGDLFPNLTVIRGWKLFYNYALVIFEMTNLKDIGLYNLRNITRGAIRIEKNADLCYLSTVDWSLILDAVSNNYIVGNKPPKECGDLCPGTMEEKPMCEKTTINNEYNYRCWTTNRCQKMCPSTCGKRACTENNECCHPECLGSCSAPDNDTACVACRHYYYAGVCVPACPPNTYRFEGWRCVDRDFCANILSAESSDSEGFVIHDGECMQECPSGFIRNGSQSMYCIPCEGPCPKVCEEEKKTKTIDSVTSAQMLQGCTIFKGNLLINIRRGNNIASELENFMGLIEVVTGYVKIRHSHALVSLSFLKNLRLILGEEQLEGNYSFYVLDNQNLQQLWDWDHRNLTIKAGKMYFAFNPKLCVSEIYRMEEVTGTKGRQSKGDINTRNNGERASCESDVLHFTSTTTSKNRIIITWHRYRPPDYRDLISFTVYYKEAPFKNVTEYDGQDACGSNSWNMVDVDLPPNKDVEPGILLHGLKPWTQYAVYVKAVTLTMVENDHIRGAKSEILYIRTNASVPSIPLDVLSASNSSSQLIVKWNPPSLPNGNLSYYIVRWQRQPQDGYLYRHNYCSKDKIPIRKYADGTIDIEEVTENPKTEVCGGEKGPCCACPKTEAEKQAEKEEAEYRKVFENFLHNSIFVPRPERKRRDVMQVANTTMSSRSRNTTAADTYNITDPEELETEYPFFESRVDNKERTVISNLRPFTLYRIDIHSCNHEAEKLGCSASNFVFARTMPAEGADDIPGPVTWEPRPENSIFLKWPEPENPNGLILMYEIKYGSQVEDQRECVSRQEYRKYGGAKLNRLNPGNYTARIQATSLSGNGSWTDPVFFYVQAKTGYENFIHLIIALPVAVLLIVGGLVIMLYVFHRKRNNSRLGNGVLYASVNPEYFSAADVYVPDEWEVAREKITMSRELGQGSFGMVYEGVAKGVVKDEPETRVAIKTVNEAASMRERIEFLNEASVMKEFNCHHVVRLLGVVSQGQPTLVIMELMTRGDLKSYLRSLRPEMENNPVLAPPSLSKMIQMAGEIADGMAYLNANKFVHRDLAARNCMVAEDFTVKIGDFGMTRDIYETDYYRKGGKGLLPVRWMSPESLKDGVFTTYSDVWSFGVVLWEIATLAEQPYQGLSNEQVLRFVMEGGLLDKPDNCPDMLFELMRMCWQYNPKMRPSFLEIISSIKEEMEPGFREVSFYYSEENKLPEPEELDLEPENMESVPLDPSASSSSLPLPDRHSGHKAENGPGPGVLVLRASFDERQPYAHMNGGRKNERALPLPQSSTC
Experimental: as §1

MAPK2(h) = MAPK2(h) (Homo sapiens, UniProt P28482); assay: Kinase Profiler; format: biochemical
Experimental: as §2

Chain of IGF-1R(h) (P08069 31-1367): as above
Chain of ROCK-I(h) (Q13464 whole entry): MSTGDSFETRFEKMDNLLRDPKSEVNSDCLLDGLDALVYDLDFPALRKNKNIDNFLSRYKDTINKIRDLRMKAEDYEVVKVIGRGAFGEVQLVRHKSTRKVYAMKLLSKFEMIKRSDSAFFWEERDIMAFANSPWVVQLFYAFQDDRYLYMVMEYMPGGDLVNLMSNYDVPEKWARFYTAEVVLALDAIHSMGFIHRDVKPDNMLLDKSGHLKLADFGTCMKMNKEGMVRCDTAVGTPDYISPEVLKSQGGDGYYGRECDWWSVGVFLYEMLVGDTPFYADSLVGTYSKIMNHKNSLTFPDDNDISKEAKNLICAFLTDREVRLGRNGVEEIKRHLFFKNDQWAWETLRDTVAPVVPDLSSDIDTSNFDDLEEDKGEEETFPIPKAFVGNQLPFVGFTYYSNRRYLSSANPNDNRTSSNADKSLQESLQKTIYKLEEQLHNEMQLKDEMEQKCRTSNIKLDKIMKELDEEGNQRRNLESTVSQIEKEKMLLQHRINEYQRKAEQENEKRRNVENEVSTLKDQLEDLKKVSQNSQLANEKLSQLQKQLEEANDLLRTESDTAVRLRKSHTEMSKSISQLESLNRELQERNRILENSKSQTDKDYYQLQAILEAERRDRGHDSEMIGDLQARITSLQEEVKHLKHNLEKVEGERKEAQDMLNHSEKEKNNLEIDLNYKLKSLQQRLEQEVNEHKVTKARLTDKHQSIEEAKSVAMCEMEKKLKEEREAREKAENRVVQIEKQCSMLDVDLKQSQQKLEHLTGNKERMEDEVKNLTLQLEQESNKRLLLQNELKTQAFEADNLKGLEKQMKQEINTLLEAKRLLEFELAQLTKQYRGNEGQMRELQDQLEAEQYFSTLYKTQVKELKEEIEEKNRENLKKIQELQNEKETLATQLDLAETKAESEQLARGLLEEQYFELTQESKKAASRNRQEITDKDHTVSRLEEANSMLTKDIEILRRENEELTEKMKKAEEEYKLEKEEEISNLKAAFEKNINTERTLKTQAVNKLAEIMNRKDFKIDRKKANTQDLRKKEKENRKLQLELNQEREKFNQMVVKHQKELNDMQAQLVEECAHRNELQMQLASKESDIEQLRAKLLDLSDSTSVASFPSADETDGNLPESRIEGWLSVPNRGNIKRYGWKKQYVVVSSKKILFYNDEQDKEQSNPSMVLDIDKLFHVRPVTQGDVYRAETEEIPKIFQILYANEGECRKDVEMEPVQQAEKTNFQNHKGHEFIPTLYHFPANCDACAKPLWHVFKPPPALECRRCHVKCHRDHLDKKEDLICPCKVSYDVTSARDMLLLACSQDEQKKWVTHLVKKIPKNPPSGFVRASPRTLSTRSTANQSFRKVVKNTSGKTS

## COc1ccc(OC)c(NS(=O)(=O)c2ccc(NC(=O)CCSc3ccc(C)cc3)cc2)c1 [Compound A41]
IGF-1R(h)
  Activity(%): 100%
ROCK-I(h)
  Activity(%): 101%
PTK5(h)
  Activity(%): 113%
Nicotinic Acetylcholine
  % inh.: -3%
Snk(h)
  Activity(%): 112%
CaMKIV(h)
  Activity(%): 114%
CDC42
  activation of CDC42 induced by TIAM DH-PH: did not change the activation
PDHK4(h)
  Activity(%): 93%
WNK2(h)
  Activity(%): 90%
Fyn(h)
  Activity(%): 102%
CLK1(h)
  Activity(%): 81%
BRK(h)
  Activity(%): 107%
[1]
  % inh.: 52%
GABAB1A
  % inh.: -6%
IGF-1R(h), activated
  Activity(%): 108%
MAPK2(h)
  Activity(%): 103%
